Data taken from patent US20190351002A1, “METHOD OF TREATING CANCER, PARASITE, MICROBIAL OR FUNGAL DISEASE” (priority 2017, published 2019).

Tests used:
Toxoplasma gondii = experiment: ELISA test of efficiency against Toxoplasma gondii in infected Hep2 cells; assay type: cell-based; conditions: 48 hour
Description: An ELISA (Enzyme-Linked Immunosorbent Assay) test (FIG. 3) has been planned and conducted in order to determine efficiency against Toxoplasma gondii.
The ELISA test has been carried out on flat bottom well plates having 96 wells. First of all, the bases of the plates have been covered with a suitable amount of Hep2 cells. […] Following this all wells have been processed again with different doses (determined with MTT) of pyrimtheamine, sulphadiazine—and Ginger (Zingiber officinals) extract, prepared with DMSO.
1 Following all of these procedures, the supernatants were removed from the wells and were retained for 10 minutes with 100 μl cold methanol. • The plates which were ready for the ELISA process were then worked.
The result was read by the ELISA reader device in 30 minutes.

[1] = test system: Hep2 (Human Epidermoid Larynx ca) cells; experiment: MTT cytotoxicity test on Hep2 cell line; assay type: cell-based
Description: The oils of the plant as an extract are used which have been obtained by cold pressing and it has been ensured that the extract is fresh and pure. The extracts that have been obtained through the whole study have been initially diluted with solvents, filtered and sterilized. Cytotoxicity study (MTT test) has been developed as a method regarding the Hep2 cell line in all parameters for initial doses. The maximum dose and dilution sub doses that have been determined accordingly have been repeated controlled groups. Different amounts of Hep2 cells have been tested in flat bottomed 96 well plates for cell culture during the first stage of the study and it has been determined that 2×10^4 cells were optimal for the monolayer layer of 2×10^4 cell per well. A pure oil of Zingiber officinale extract, which has been tested inside various solvents in terms of penetration into cells and homogenous distribution. MTT tests have been carried out relating to Hep2 cells in solvents too. DMSO was selected from solvents such as DMSO and Methanol and was used and cytopathic doses have not been exceeded during the whole study (FIG. 1). Essential oil has been obtained from Ginger and emulsions have been obtained from fixed oil plants (Nigella Sativa etc.) and compounds. According to MTT test (FIG. 2) results that belong to Zingiber officinale, the average OD values of the control group have been determined as 1.38.

SMILES	ELISA OD value / reproduction according to positive control (PK) (Toxoplasma gondii; 0.5 μg/ml) [%]	ELISA OD value / reproduction according to positive control (PK) (Toxoplasma gondii; 4 μg/ml) [%]	ELISA OD value / reproduction according to positive control (PK) (Toxoplasma gondii; 2nd dose (printed '2.1 and 0.5 μg/ml': 2 μg/ml)) [%]	ELISA OD value / reproduction according to positive control (PK) (Toxoplasma gondii; 3rd dose) [%]	OD value (MTT test) ([1]; 1 μg/ml)	OD value (MTT test) ([1]; 2 μg/ml)	OD value (MTT test) ([1]; 4 μg/ml)	OD value (MTT test) ([1]; 8 μg/ml)	OD value (MTT test) ([1]; 16 μg/ml)	OD value (MTT test) ([1]; 32 μg/ml)	OD value (MTT test) ([1]; 50 μg/ml)	OD value (MTT test) ([1]; 100 μg/ml)	OD value (MTT test) ([1]; 200 μg/ml)
CCc1nc(N)nc(N)c1-c1ccc(Cl)cc1 [Pyrimethamine]	75	45	56	54	1.228	1.198	0.623	0.310	0.209	0.097	–	–	–
Nc1ccc(S(=O)(=O)Nc2ncccn2)cc1 [Sulphadiazine]	–	–	–	–	–	–	–	–	–	–	1.002	0.827	0.254
